1 molecule from publication PMC12959137 (Antimicrobial Agents and Chemotherapy, 2026) can be followed below.

In this assay the target is KPC-2 (Klebsiella pneumoniae, UniProt Q9F663). Type of assay: biochemical. The note with it: read-out: KM for nitrocefin hydrolysis (used in Morrison fit).
Sequence of KPC-2 (Q9F663 25-293 limits assumed): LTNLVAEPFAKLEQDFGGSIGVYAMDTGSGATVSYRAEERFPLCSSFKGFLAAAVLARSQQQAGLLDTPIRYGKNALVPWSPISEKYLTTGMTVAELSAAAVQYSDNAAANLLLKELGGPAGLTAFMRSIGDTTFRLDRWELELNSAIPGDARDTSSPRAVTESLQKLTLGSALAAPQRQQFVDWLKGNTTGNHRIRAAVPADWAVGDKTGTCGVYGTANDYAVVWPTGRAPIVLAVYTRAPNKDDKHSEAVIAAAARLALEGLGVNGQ

Procedure: Initial velocities (v₀) were determined by fitting the reaction progress curves by linear regression. These velocities were then plotted against buffer concentrations and analyzed using the Morrison equation to determine the inhibition constant (Ki) ([33]). […] All data analysis and curve fitting were performed using GraphPad Prism (version 10.3.1).

The Km is the substrate concentration at which the rate is half of its maximum. As for `O=C(Cc1cccs1)N[C@@H]1C(=O)N2C(C(=O)O)=C(/C=C/c3ccc([N+](=O)[O-])cc3[N+](=O)[O-])CS[C@H]12` [nitrocefin], the Km turned out to be 45 µM.
